Columns and labels:
[1] = target: T1, PLA2G16 (Homo sapiens, UniProt P53816); test: Enzyme activity assay for PLA2G16 (Red/Green BODIPY PC-A2 fluorescence); assay type: biochemical; conditions: His-tagged PLA2G16, 4 min pre-incubation, 2 nM to 50 μM; read-out: IC50 values of the compounds determined in the enzyme activity assay for PLA2G16
T1 construct: Hexa-His (N); made in house; host or cells: E. coli BL21(DE3)
T1 sequence (P53816 1-162): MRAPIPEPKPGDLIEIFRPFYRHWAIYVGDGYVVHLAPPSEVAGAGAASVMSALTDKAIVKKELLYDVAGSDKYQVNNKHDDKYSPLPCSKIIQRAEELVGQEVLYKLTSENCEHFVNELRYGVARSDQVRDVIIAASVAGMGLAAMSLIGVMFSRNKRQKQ
Method in brief: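 N-His-tagged human PLA2G16 from E. coli, Ni-NTA purified. Pre-incubated 4 min with compound (2 nM–50 μM final) in pH 8.5 Tris/NaCl buffer with 5 mM glutathione, then BODIPY PC-A2 in DOPC/DOPG/cholesterol vesicles added. Fluorescence (ex 480/em 530 nm) increase over 10 min taken as activity; IC50 by non-linear regression.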

[2] = tested on: picornaviruses (CVB1, HRV-A2, HRV-A23, EV-68); test: Anti-picornavirus cytopathic effect (CPE) reduction assay on HeLa H1 cells; assay type: cell-based; conditions: Enterovirus B, HeLa H1, 48 h, HeLa H1 cells, 48 h, category from averaging the EC50 values from four picornaviruses (CVB1, HRV-A2, HRV-A23, EV68); read-out: EC50 values of the compounds determined in the anti-picornavirus assay
Method in brief: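 HeLa H1 cells pre-treated 2 h with serially diluted compound in DMEM/2% FBS, then infected at an MOI giving full CPE in 2 days. After 48 h at 37° C, viability read by CellTiterBlue fluorescence (ex 560/em 590 nm), normalised to infected and uninfected vehicle controls; EC50 by non-linear regression, category from mean of four viruses.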

With `O=C(NCCNC(=O)C1CCC1)C(=O)[C@H]1CCC(=O)N1Cc1ccccc1` [FP 332, 2-[(2R)-1-Benzyl-5-oxopyrrolidin-2-yl]-N-[2-(cyclobutylformamido)ethyl]-2-oxoacetamide] the IC50 [1] was < 1000 nM and the EC50 [2] was 1000 to 10000 nM.

For `CC(C)C(=O)N(C)C(C)C(=O)C(=O)NCC1CC1` (stereo not shown) [FP 151, N-(Cyclopropylmethyl)-3-(N,2-dimethylpropanamido)-2-oxobutanamide], the IC50 [1] was 1000 to 10000 nM and the EC50 [2] was > 10000 nM.

For `CC(C)NC(=O)C(=O)[C@H]1CCC(=O)N1Cc1ccccc1` [FP 238, 2-[(2R)-1-Benzyl-5-oxopyrrolidin-2-yl]-2-oxo-N-(propan-2-yl)acetamide], the IC50 [1] was < 1000 nM and the EC50 [2] was < 1000 nM.

For `O=C(NC1CC1)C(=O)C1CCC(=O)N1Cc1ccc(Cl)c(F)c1` (stereo not shown) [FP 232, 2-{1-[(4-Chloro-3-fluorophenyl)methyl]-5-oxopyrrolidin-2-yl}-N-cyclopropyl-2-oxoacetamide], the IC50 [1] was < 1000 nM and the EC50 [2] was 1000 to 10000 nM.

With `O=C(NC1CC1)C(=O)C1N(Cc2ccccc2)C(=O)CC12CC2` (stereo not shown) [FP 345, 2-{5-Benzyl-6-oxo-5-azaspiro[2.4]heptan-4-yl}-N-cyclopropyl-2-oxoacetamide] the IC50 [1] was < 1000 nM and the EC50 [2] was < 1000 nM.

In the case of `CC(NS(=O)(=O)Cc1ccccc1)C(=O)C(=O)NCC1CC1` (stereo not shown) [FP 188, N-(Cyclopropylmethyl)-2-oxo-3-(phenylmethanesulfonamido)butanamide], the IC50 [1] is reported as < 1000 nM and the EC50 [2] is reported as > 10000 nM.

In the case of `CC(C)C(=O)N1CCC(NC(=O)C(=O)[C@H]2CCC(=O)N2Cc2ccccc2)CC1` [FP 315, 2-[(2R)-1-Benzyl-5-oxopyrrolidin-2-yl]-N-[1-(2-methylpropanoyl)piperidin-4-yl]-2-oxoacetamide], the IC50 [1] is reported as < 1000 nM and the EC50 [2] is reported as 1000 to 10000 nM.

In the case of `O=C(NC1CCN(S(=O)(=O)C2CCCC2)CC1)C(=O)[C@H]1CCC(=O)N1Cc1ccccc1` [FP 321, 2-[(2R)-1-Benzyl-5-oxopyrrolidin-2-yl]-N-[1-(cyclopentanesulfonyl)piperidin-4-yl]-2-oxoacetamide], the IC50 [1] is reported as < 1000 nM and the EC50 [2] is reported as < 1000 nM.

`CC(C)CN(C=O)C(C(=O)C(=O)NCC1CC1)C(C)C` (stereo not shown) [FP 30, N-(Cyclopropylmethyl)-4-methyl-3-[N-(2-methylpropyl)formamido]-2-oxopentanamide] was tested, and the IC50 [1] was < 1000 nM and the EC50 [2] was 1000 to 10000 nM.

With `CC(C)CC(C(=O)C(N)=O)N(C=O)Cc1ccccc1` (stereo not shown) [FP 199, 3-(N-Benzylformamido)-5-methyl-2-oxohexanamide] the IC50 [1] was < 1000 nM and the EC50 [2] was > 10000 nM.

`O=C(NCCCc1ccncc1)C(=O)C1CCC(=O)N1Cc1ccccc1` (stereo not shown) [FP 228, 2-(1-Benzyl-5-oxopyrrolidin-2-yl)-2-oxo-N-[3-(pyridin-4-yl)propyl]acetamide] was tested, and the IC50 [1] was < 1000 nM and the EC50 [2] was 1000 to 10000 nM.

With `COc1ccccc1N(C=O)C(C)C(=O)C(=O)NCc1ccccc1C` (stereo not shown) [FP 98, 3-[N-(2-Methoxyphenyl)formamido]-N-[(2-methylphenyl)methyl]-2-oxobutanamide] the IC50 [1] was < 1000 nM and the EC50 [2] was 1000 to 10000 nM.

With `CC(NC(=O)C1CCN(CC(F)(F)F)CC1)C(=O)C(=O)NCC1CCCCC1` (stereo not shown) [FP 206, N-(Cyclohexylmethyl)-2-oxo-3-{[1-(2,2,2-trifluoroethyl)piperidin-4-yl]formamido}-butanamide] the IC50 [1] was < 1000 nM and the EC50 [2] was 1000 to 10000 nM.

For `O=C(NCC(F)F)C(=O)[C@H]1CCC(=O)N1Cc1ccccc1` [FP 266, 2-[(2R)-1-Benzyl-5-oxopyrrolidin-2-yl]-N-(2,2-difluoroethyl)-2-oxoacetamide], the IC50 [1] was < 1000 nM and the EC50 [2] was < 1000 nM.

`O=C(NC1CC(F)(F)C1)C(=O)[C@H]1CCC(=O)N1Cc1ccccc1` [FP 268, 2-[(2R)-1-Benzyl-5-oxopyrrolidin-2-yl]-N-(3,3-difluorocyclobutyl)-2-oxoacetamide] was tested, and the IC50 [1] was < 1000 nM and the EC50 [2] was < 1000 nM.

`O=C(NC1CC1)C(=O)C1CCC(=O)N1Cc1ccc(Cl)cc1F` (stereo not shown) [FP 234, 2-{1-[(4-Chloro-2-fluorophenyl)methyl]-5-oxopyrrolidin-2-yl}-N-cyclopropyl-2-oxoacetamide] was tested, and the IC50 [1] was < 1000 nM and the EC50 [2] was 1000 to 10000 nM.

In the case of `CNC(=O)C(=O)C1N(Cc2ccccc2)C(=O)CC12CC2` (stereo not shown) [FP 347, 2-{5-Benzyl-6-oxo-5-azaspiro[2.4]heptan-4-yl}-N-methyl-2-oxoacetamide], the IC50 [1] is reported as < 1000 nM and the EC50 [2] is reported as < 1000 nM.

For `COc1ccccc1OC(C)C(=O)C(=O)NCc1cccc(Cl)c1` (stereo not shown) [FP 133, N-[(3-Chlorophenyl)methyl]-3-(2-methoxyphenoxy)-2-oxobutanamide], the IC50 [1] was < 1000 nM and the EC50 [2] was 1000 to 10000 nM.

For `CC(C)CNC(=O)C(=O)C(C)NC(=O)c1ccccc1` (stereo not shown) [FP 182, N-(2-Methylpropyl)-2-oxo-3-(phenylformamido)butanamide], the IC50 [1] was < 1000 nM and the EC50 [2] was > 10000 nM.

With `O=C(NCCF)C(=O)[C@H]1CCC(=O)N1Cc1ccccc1` [FP 282, 2-[(2R)-1-Benzyl-5-oxopyrrolidin-2-yl]-N-(2-fluoroethyl)-2-oxoacetamide] the IC50 [1] was < 1000 nM and the EC50 [2] was < 1000 nM.

With `CCCC(NS(=O)(=O)c1ccccc1)C(=O)C(=O)NCC1CC1` (stereo not shown) [FP 217, 3-Benzenesulfonamido-N-(cyclopropylmethyl)-2-oxohexanamide] the IC50 [1] was < 1000 nM and the EC50 [2] was 1000 to 10000 nM.

With `COCC(=O)N(c1ccccc1OC)C(C)C(=O)C(=O)NCc1cccc(Cl)c1` (stereo not shown) [FP 175, N-[(3-Chlorophenyl)methyl]-3-[2-methoxy-N-(2-methoxyphenyl)acetamido]-2-oxobutanamide] the IC50 [1] was < 1000 nM and the EC50 [2] was 1000 to 10000 nM.

`COc1ccccc1N(C=O)C(C)C(=O)C(=O)NCC(C)C` (stereo not shown) [FP 100, 3-[N-(2-Methoxyphenyl)formamido]-N-(2-methylpropyl)-2-oxobutanamide] was tested, and the IC50 [1] was < 1000 nM and the EC50 [2] was 1000 to 10000 nM.

For `O=CN(CC(=O)C(=O)NCC1CC1)Cc1ccccc1` [FP 193, 3-(N-Benzylformamido)-N-(cyclopropylmethyl)-2-oxopropanamide], the IC50 [1] was < 1000 nM and the EC50 [2] was < 1000 nM.

In the case of `CC(C)CNC(=O)C(=O)C(C)N(C=O)CC(C)(C)C` (stereo not shown) [FP 45, 3-[N-(2,2-Dimethylpropyl)formamido]-N-(2-methylpropyl)-2-oxobutanamide], the IC50 [1] is reported as < 1000 nM and the EC50 [2] is reported as < 1000 nM.

`Cc1ccccc1C(=O)N[C@@H](C)C(=O)C(=O)NCC1CC1` (single isomer, unassigned) [FP 157] was tested, and the IC50 [1] was < 1000 nM and the EC50 [2] was 1000 to 10000 nM.

`O=CN(CC1CCOCC1)C(CCc1ccccc1)C(=O)C(=O)NCC1CC1` (stereo not shown) [FP 68, N-(Cyclopropylmethyl)-3-{N-[(oxan-4-yl)methyl]formamido}-2-oxo-5-phenylpentanamide] was tested, and the IC50 [1] was < 1000 nM and the EC50 [2] was < 1000 nM.

For `Cc1ccc(S(=O)(=O)NC(C)C(=O)C(=O)NCC2CC2)cc1` (stereo not shown) [FP 189, N-(Cyclopropylmethyl)-3-(4-methylbenzenesulfonamido)-2-oxobutanamide], the IC50 [1] was < 1000 nM and the EC50 [2] was 1000 to 10000 nM.

With `CC(C(=O)C(=O)NCC1CCCCC1)N(C)C(=O)C1CC1` (stereo not shown) [FP 146, N-(Cyclohexylmethyl)-3-(1-cyclopropyl-N-methylformamido)-2-oxobutanamide] the IC50 [1] was < 1000 nM and the EC50 [2] was 1000 to 10000 nM.

`CC(OCC(C)(C)C)C(=O)C(=O)NCC1CC1` (stereo not shown) [FP 122, N-(Cyclopropylmethyl)-3-(2,2-dimethylpropoxy)-2-oxobutanamide] was tested, and the IC50 [1] was 1000 to 10000 nM and the EC50 [2] was 1000 to 10000 nM.

For `CC(OCC1CCOCC1)C(=O)C(=O)NCC1CC1` (stereo not shown) [FP 121, N-(Cyclopropylmethyl)-3-[(oxan-4-yl)methoxy]-2-oxobutanamide], the IC50 [1] was < 1000 nM and the EC50 [2] was 1000 to 10000 nM.

For `O=C(NCC1CC1)C(=O)C1CCC(=O)N1Cc1ccc(F)cc1` (stereo not shown) [FP 241, N-(Cyclopropylmethyl)-2-{1-[(4-fluorophenyl)methyl]-5-oxopyrrolidin-2-yl}-2-oxoacetamide], the IC50 [1] was < 1000 nM and the EC50 [2] was < 1000 nM.

`O=C(NCC1CC1)C(=O)[C@H]1CCC(=O)N1Cc1ccccc1` [FP 224, 2-[(2R)-1-Benzyl-5-oxopyrrolidin-2-yl]-N-(cyclopropylmethyl)-2-oxoacetamide] was tested, and the IC50 [1] was < 1000 nM and the EC50 [2] was < 1000 nM.

In the case of `O=C(N[C@@H]1C[C@@H]1F)C(=O)[C@H]1CCC(=O)N1Cc1ccccc1` [FP 267, 2-[(2R)-1-Benzyl-5-oxopyrrolidin-2-yl]-N-[(1R,2S)-2-fluorocyclopropyl]-2-oxoacetamide], the IC50 [1] is reported as < 1000 nM and the EC50 [2] is reported as < 1000 nM.

In the case of `CC(NC(=O)c1ccc(Cl)cc1)C(=O)C(=O)NCC1CC1` (stereo not shown) [FP 170, 3-[(4-Chlorophenyl)formamido]-N-(cyclopropylmethyl)-2-oxobutanamide], the IC50 [1] is reported as < 1000 nM and the EC50 [2] is reported as 1000 to 10000 nM.

In the case of `CC1(NC(=O)C(=O)C2CCC(=O)N2Cc2ccccc2)CC1` (stereo not shown) [FP 246, 2-(1-Benzyl-5-oxopyrrolidin-2-yl)-N-(1-methylcyclopropyl)-2-oxoacetamide], the IC50 [1] is reported as < 1000 nM and the EC50 [2] is reported as 1000 to 10000 nM.

In the case of `CC(C)C(C(=O)C(=O)NCC1CC1)N(C=O)CC(C)(C)C` (stereo not shown) [FP 31, N-(Cyclopropylmethyl)-3-[N-(2,2-dimethylpropyl)formamido]-4-methyl-2-oxopentanamide], the IC50 [1] is reported as < 1000 nM and the EC50 [2] is reported as 1000 to 10000 nM.

In the case of `COC(=O)CNC(=O)C(=O)C(C)N(C=O)Cc1ccccc1` (stereo not shown) [FP 56, Methyl 2-[3-(N-benzylformamido)-2-oxobutanamido]acetate], the IC50 [1] is reported as < 1000 nM and the EC50 [2] is reported as > 10000 nM.
